pIC50: −log10 of the molar value.
Assays:
[1] = Cytotoxicity against HUVEC cells incubated for 72 hrs by CCK-8 assay; details: human
Homo sapiens = species on record: Homo sapiens; test: Selectivity ratio, ratio IC50 for inhibition of PI3Kalpha (unknown origin) to IC50 for inhibition of PI3Kdelta (unknown origin)
[2] = target: T1, Phosphatidylinositol 4,5-bisphosphate 3-kinase catalytic subunit delta isoform (Homo sapiens, UniProt O00329); test: Inhibition of PI3Kdelta (unknown origin) measured by ADP-Glo assay
T1 sequence (O00329 whole entry): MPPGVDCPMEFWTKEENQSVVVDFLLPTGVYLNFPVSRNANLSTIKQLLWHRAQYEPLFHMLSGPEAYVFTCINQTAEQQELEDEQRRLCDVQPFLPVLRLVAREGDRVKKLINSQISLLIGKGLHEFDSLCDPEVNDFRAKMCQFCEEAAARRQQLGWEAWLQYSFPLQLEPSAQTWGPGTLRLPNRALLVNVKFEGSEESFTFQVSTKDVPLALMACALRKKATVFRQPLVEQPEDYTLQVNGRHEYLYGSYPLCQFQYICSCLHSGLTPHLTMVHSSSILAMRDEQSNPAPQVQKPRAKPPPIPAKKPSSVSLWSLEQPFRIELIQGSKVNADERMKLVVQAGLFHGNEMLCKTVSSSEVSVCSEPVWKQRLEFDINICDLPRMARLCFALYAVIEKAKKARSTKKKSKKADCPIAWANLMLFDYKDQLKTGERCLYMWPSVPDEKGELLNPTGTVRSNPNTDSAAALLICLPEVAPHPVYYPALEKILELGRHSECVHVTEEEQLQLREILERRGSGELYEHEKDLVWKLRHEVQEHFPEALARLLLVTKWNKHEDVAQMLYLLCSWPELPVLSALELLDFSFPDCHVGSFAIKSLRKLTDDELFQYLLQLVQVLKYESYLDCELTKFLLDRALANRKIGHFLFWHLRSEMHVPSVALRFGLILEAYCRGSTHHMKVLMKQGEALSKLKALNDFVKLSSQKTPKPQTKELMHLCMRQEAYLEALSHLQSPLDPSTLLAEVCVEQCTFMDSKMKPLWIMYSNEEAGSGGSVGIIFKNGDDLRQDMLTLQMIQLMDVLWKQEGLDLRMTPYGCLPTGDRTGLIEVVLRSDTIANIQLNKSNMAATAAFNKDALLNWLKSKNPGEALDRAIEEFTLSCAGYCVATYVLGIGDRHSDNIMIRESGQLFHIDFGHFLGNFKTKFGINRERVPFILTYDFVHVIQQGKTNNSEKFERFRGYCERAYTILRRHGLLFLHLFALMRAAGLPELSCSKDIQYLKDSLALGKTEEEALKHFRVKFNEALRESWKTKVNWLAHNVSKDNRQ

Histone deacetylase 11 = target: T2, Histone deacetylase 11 (Homo sapiens, UniProt Q96DB2)
T2 sequence (Q96DB2 whole entry): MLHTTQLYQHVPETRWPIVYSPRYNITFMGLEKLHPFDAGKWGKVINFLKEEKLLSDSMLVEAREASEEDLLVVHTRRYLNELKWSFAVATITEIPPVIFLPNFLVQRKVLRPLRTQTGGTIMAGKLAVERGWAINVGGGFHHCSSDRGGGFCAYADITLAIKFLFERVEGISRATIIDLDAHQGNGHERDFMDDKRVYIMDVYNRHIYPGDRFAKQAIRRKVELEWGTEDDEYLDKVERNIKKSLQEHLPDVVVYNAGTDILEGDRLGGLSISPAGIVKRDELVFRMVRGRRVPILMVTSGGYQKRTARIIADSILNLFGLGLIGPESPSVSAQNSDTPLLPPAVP
Description: Inhibition of HDAC11 (unknown origin) measured by fluorescence based assay

T47D = test: Downregulation of pAKT expression in human T47D cells at 10 to 1000 nM measured by western blot analysis; assay type: functional, cell-based; details: dose 10-1000 nM, DDE = dose-dependent effect
[3] = Cmax in male Sprague-Dawley rat at 2 mg/kg, iv measured upto 24 hrs by LC-MS/MS analysis; assay type: ADME, organism-based; parameters: time < 24 hrs, dose 2 mg/kg, route iv; details: in vivo
Histone deacetylase 1 = Histone deacetylase 1 (Homo sapiens, UniProt Q13547)
Description: Inhibition of HDAC1 (unknown origin) measured by fluorescence based assay

[4] = Apparent volume of distribution in male Sprague-Dawley rat at 2 mg/kg, iv measured upto 24 hrs by LC-MS/MS analysis; assay type: ADME, organism-based; details: in vivo, read-out: Vz

Chain of Histone deacetylase 1 (Q13547 whole entry): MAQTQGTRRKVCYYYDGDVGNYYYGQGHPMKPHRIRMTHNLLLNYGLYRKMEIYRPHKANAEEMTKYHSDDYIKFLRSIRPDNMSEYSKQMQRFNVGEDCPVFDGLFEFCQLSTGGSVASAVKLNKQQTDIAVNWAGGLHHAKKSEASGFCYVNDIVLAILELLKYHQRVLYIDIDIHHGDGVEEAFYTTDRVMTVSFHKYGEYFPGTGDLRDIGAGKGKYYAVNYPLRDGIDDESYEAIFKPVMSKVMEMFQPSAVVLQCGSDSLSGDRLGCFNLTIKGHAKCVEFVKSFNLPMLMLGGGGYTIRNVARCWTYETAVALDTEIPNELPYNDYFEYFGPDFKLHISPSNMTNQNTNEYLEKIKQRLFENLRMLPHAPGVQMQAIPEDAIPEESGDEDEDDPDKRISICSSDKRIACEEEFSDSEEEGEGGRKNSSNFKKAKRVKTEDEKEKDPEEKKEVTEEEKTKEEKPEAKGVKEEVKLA

**Q.** For `N#Cc1c(N)nc(N)nc1N1CC2(CC2)C[C@H]1c1nc2cccc(Cl)c2c(=O)n1Cc1ccc(C(=O)NO)s1`, which IC50 at 72 h [1] is on record?
**A.** 37000 nM

**Q.** And the Ratio IC50 (Homo sapiens)?
**A.** 73

**Q.** What about the pIC50 [2] of the same compound?
**A.** 8.64

**Q.** And the pIC50 (Histone deacetylase 11)?
**A.** 5.81

**Q.** What about the Activity (T47D) of the same compound?
**A.** Dde

**Q.** And the Cmax [3]?
**A.** 2120 ng/mL

**Q.** And the pIC50 (Histone deacetylase 1)?
**A.** 6.64

**Q.** What about the Vd [4] of the same compound?
**A.** 2.09 L/kg

— ChEMBL document CHEMBL5214954, “Identification of PI3K/HDAC Dual-targeted inhibitors with subtype selectivity as potential therapeutic agents against solid Tumors: Building HDAC6 potency in a Quinazolinone-based PI3Kδ-selective template” (Bioorg Med Chem, 2022)
